Results taken from the METLIN SMRT retention time set (Domingo-Almenara et al. 2019).

Test: gradient 5% acetonitrile 3 min, to 50% in 2 min, to 85% in 15 min, held 3 min, 100 µL/min
Conditions: column: Zorbax Extend-C18 2.1 x 50 mm; eluents: water / acetonitrile, 0.1% formic acid
Outline: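 Pure standards were run in mixtures of ~100 molecules by HPLC coupled to a quadrupole time-of-flight mass spectrometer. The column was a Zorbax Extend-C18 (2.1 × 50 mm, 1.8 μm) at 100 μL/min, with water and acetonitrile each containing 0.1% formic acid, in positive and negative ionization mode. Dead and dwell volumes were 40 μL and 900 μL. Retention time was taken from computationally picked adduct peaks, each manually inspected, with data collected over 3 months.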

| SMILES | RP-LC retention time [s] |
| --- | --- |
| O=c1ccc(N2CCCN(S(=O)(=O)c3ccc(F)cc3)CC2)nn1-c1ccccc1 | 846 |
| O=C(NCc1ccco1)c1ccc(-c2ccc(N3CCSCC3)nc2)cc1 | 708 |
| N#Cc1cccc(S(=O)(=O)N2CCc3nc(-c4ccccc4)ncc3C2)c1 | 987 |
| CN(C)c1ccc(/C=C/c2ccc3ccccc3n2)cc1 | 785 |
| CC(C)C(=O)N1CCc2c([nH]c3ccccc23)C12C(=O)Nc1ccc(Br)cc12 (centres undefined) | 925 |
| O=c1n(CCc2ccccc2)nc2c(S(=O)(=O)N3CCCCCC3)cccn12 | 1000 |
| Cc1cc(C(=O)Nc2nc(-c3ccc(C)c(C)c3)c(C)s2)no1 | 1120 |
| COC(=O)C1=C(N)Oc2cc(C)n(CCN(C)C)c(=O)c2C1c1cccc(OC)c1 (centres undefined) | 609 |
| CCc1nc2cc(-c3noc(-c4c(F)cccc4Cl)n3)ccc2o1 | 1190 |
| CN(C)c1nc2cc(C(=O)NC3CCCC3)sc2n1-c1ccc(F)cc1 | 1050 |
| COC(=O)c1c(C)oc2ccc(OCC(=O)c3ccc(F)cc3)cc12 | 999 |
| O=C(C1=CN(c2ccc(F)c(F)c2)c2ccccc2S1(=O)=O)N1CCCCC1 | 1040 |
| CC(C)CCNC(=O)C1Cn2cccc2C(=O)N1CC(C)C (centres undefined) | 799 |
| Cc1nc(-c2ccc(C(=O)NC(C)C)cc2)no1 | 693 |
| O=C(NCc1ccc2c(c1)OCO2)C(=O)c1cccn1Cc1ccccc1 | 980 |
| CCn1ccc(C(=O)N2CC(n3ccnc3C(C)C)C2)n1 | 566 |
| CN(C)c1ccc(CNC(=O)CCC(=O)N2CCCn3nc(-c4cccn4C)cc32)cc1 | 599 |
| CC1(O)CCOC2(CCN(C(=O)C3CCCC3)CC2)C1 (centres undefined) | 662 |
| O=C(O)CC1CCCN(c2cnn(CC3CC3)c(=O)c2)C1 (centres undefined) | 657 |
| COc1ccc(NC(=O)Nc2cccc(-c3ccc(N4CCCCC4)nn3)c2)c(OC)c1 | 719 |
| O=C(Nc1ccc(NC(=O)N2CCCC(C(=O)NCC3CC3)C2)cc1)NC1CCCC1 (centres undefined) | 692 |
| O=C(Cn1c(=O)oc2ccccc21)N1C[C@H]2C[C@H](C1)[C@H]1CCCC(=O)N1C2 | 658 |
| COCCNC(=O)c1nc(-c2ccnc(N3CCCCCC3)c2)no1 | 602 |

| SMILES | RP-LC retention time [s] |
| --- | --- |
| CC(C)n1cnc2cc(CNC(=O)c3ccc4c(c3)OCO4)ccc21 | 624 |
| COc1ccc(C2CC(=O)N(c3ccc(C)c(Cl)c3)C(=O)C2)cc1OC | 652 |
| O=C(c1cc(F)ccc1F)N1CCc2nc(-c3ccc(Cl)cc3)ncc2C1 | 1090 |
| NC(=O)CSc1nnc(N2CCN(C(=O)c3ccccc3Cl)CC2)s1 | 596 |
| Cc1ccc(-n2cc3c(N4CCCC(C(=O)NCc5ccccc5C(F)(F)F)C4)ncnc3n2)cc1 (centres undefined) | 775 |
| Cn1c(=O)oc2cc(-c3noc(-c4ccc(C(C)(C)C)cc4)n3)ccc21 | 1310 |
| CCN1CCN(c2cc(C(=O)O)c3cc(NS(=O)(=O)c4cc(C)c(C)cc4C)ccc3n2)CC1 | 629 |
| Cc1c(-c2noc(C(=O)N3CCN(Cc4ccc5c(c4)OCO5)CC3)n2)oc2c(C)cccc12 | 837 |
| O=C(Cn1nc2c(Oc3cccc(F)c3)nccn2c1=O)Nc1ccccc1C(F)(F)F | 870 |
| Cc1cc(C)cc(NC(=O)C2CCCN(c3nc4ccsc4c(=O)n3-c3cccc(C)c3)C2)c1 (centres undefined) | 1100 |
| Clc1cc(Cl)cc(-c2ccc(CNCc3ccccn3)o2)c1 | 742 |
| O=C(Nc1ccc(F)cc1F)N1CCCC(Cn2c(C3CC3)nc3cccnc32)C1 (centres undefined) | 668 |
| CC1CCN(S(=O)(=O)c2ccc3c(c2)-c2oncc2CO3)CC1 | 673 |
| O=C(COc1ccc(C2=NN(C(=O)c3cccs3)C(c3ccccc3)C2)cc1)NCCO (centres undefined) | 695 |
| CCc1nc2cccnc2n1CCN1CCN(C(=O)Nc2ccc3c(c2)OCCO3)CC1 | 590 |
| O=C(Nc1ccccc1Cl)N(CCc1ccccc1)Cc1ccccn1 | 852 |
| CCC(C)n1c(=O)c2ccccc2n(Cc2nc(-c3ccc(C)cc3)no2)c1=O (centres undefined) | 1240 |
| O=C1CC(c2noc(-c3ccc(F)c(Cl)c3)n2)CN1c1ccc(F)cc1 (centres undefined) | 1070 |
| Cc1ccc2c(c1)N(S(C)(=O)=O)CCC(C(=O)Nc1cccc(Br)c1)O2 (centres undefined) | 1060 |
| Cc1ccc(F)c(-n2nnc(C(=O)O)c2-c2ccncc2)c1 | 654 |
| CCc1ccc(Nc2nc(C(=O)NC3CC3)nc3ccccc23)cc1 | 791 |
| O=C(c1ccco1)N1CCN(C(=O)c2c3c(nc4ccccc24)C(=O)N(C2CCCCC2)C3)CC1 | 727 |
| O=C(c1cnccn1)N1CCCCC1c1nc(-c2ccncc2)no1 (centres undefined) | 661 |

| SMILES | RP-LC retention time [s] |
| --- | --- |
| COc1ccc(N2CC(NC(=O)C(=O)c3c[nH]c4ccccc34)CC2=O)cc1 (centres undefined) | 761 |
| Cc1ccccc1NC(=O)Cn1nc(N2CCCC(C)C2)c2ccccc2c1=O (centres undefined) | 1120 |
| Cc1nn(Cc2ccc(C(=O)NCC3CC3)cc2)c(C)c1S(=O)(=O)N1CCCCC1 | 859 |
| CC(C)n1c(=O)c(NCc2ccc(N3CCCCC3)cc2)nc2ccncc21 | 554 |
| CSc1ccc(NC(=O)Nc2c(-c3ccncc3)nc3ccccn23)cc1 | 618 |
| O=P1(N(CCCl)CCCl)NCCCO1 (centres undefined) | 724 |
| Cc1ccc(NC(=O)Cn2c(=O)n(-c3ccccc3)c(=O)c3c2cc(C)n3C)cc1C | 886 |
| CC1CCCCN1CCNC(=O)c1cc(=O)n2c(nc3ccccc32)s1 (centres undefined) | 626 |
| COc1ccc(C(=O)N2C[C@H](c3nc(-c4ccccc4)no3)[C@@H](C)C2)cc1 | 984 |
| CCN1CCCn2cc(S(=O)(=O)N3CCN(c4ccccc4F)CC3)cc2C1=O | 829 |
| COC(=O)c1cc(S(=O)(=O)N2CCCC2C(=O)Nc2ccc(Br)cc2F)cn1C (centres undefined) | 999 |
| CCC(=O)N(C1CCOCC1)C1CCN(S(=O)(=O)c2cc(F)cc(F)c2)CC1 | 856 |
| COc1ccc(-c2csc3c(=O)n(CC(=O)NCc4ccco4)cnc23)cc1 | 764 |
| CCCCn1cc(S(=O)(=O)NC2CCCCC2)c2cccnc21 | 1010 |
| Cc1ccccc1NC(=O)N(C)CCc1noc(COc2ccccc2)n1 | 869 |
| CCC(=O)N1c2ccccc2NC2=C(C(=O)CC(C)(C)C2)C1c1ccc(C(=O)OC)cc1 (centres undefined) | 749 |
| Cc1cccc(-c2noc(-c3nn(CC(=O)NC4CCCC4)c4ccccc34)n2)c1 | 1180 |
| CN1CCN(CC(=O)N2CCNC(=O)C2CC(=O)Nc2cccc(C(F)(F)F)c2)CC1 (centres undefined) | 602 |
| CC(C)CN1C(=O)c2cccn2CC1C(=O)NCCN1CCOCC1 (centres undefined) | 568 |
| CCc1nc2ccccc2c(=O)n1Cc1noc(-c2cccc(OC)c2)n1 | 998 |
| COCCN1C(=O)c2ccccc2C(C(=O)Nc2nc(C)cs2)C12CCCCC2 (centres undefined) | 810 |
| O=C(Cc1csc(NC(=O)C2CCCC2)n1)Nc1nc(-c2cccnc2)cs1 | 600 |
| Cc1noc(C)c1S(=O)(=O)N1CCC(OCCOCc2ccccc2)CC1 | 1020 |

| SMILES | RP-LC retention time [s] |
| --- | --- |
| O=C(NC1CCCCC1)C1CCN(c2cnn(Cc3ccccc3)c(=O)c2)CC1 | 793 |
| O=C(C1CCCN(c2cnc3nccnc3c2)C1)N1CCN(c2ccc(F)cc2)CC1 (centres undefined) | 746 |
| CCC(=O)N(C1CCOCC1)C1CCN(S(=O)(=O)c2ccc(F)c(F)c2)CC1 | 856 |
| CCCc1noc(-c2ccc(-n3cnc(C(=O)NC4CCCCCC4)c3)nc2)n1 | 1070 |
| COc1ccc(-c2ccc(=O)n(Cc3nc(-c4ccc(Cl)c(F)c4)no3)n2)cc1 | 1080 |
| O=C(c1ccsc1)N(CCc1ccccc1)Cc1ccccn1 | 684 |
| Cc1cc(F)ccc1NC(=O)c1cc(C2CC2)n2nccc2n1 | 1030 |
| CC(=O)N1CCc2cc(N3CC(C(=O)Nc4cccc(Cl)c4)CC3=O)ccc21 (centres undefined) | 738 |
| CCOc1ccc(NC(=O)Nc2cccc(-c3ccc(N4CCCCC4)nn3)c2)cc1 | 740 |
| CCN1C(=O)c2cccnc2Sc2cc(NC(=O)COc3ccccc3C)ccc21 | 860 |
| O=C(CN1C(=O)NC(c2ccc(Cl)cc2)C2=C1COC2=O)Nc1ccc(Br)cc1F (centres undefined) | 877 |
| COc1ccc(S(=O)(=O)N2CC3CN(C(=O)CC(C)C)CC(C2)O3)cc1 | 759 |
| Cc1cc(-c2nnc(NC(=O)C(C)(C)Oc3ccc(Cl)cc3)o2)c(C)o1 | 955 |
| C#CC(c1ccccc1)(c1ccccc1)n1ccnc1 | 739 |
| CC1CCN(c2cc(-c3nc(-c4ccccc4)no3)c3ccccc3n2)CC1 | 1360 |
| CCOc1ccccc1CNC(=O)CN1CCN(Cc2ccc(F)cc2Cl)C1=O | 920 |
| Cc1ccc(-c2nnc(N3CCC(C(=O)NCCCN4CCCC4=O)CC3)o2)cc1 | 660 |
| O=C(Nc1ccc(Br)cc1F)N1CCc2nc(-c3ccc(F)cc3)ncc2C1 | 1050 |
| O=C(Cn1c(=O)cc(C(=O)N2CCCC2)c2ccccc21)Nc1ccccc1Cl | 714 |
| C=CCN1C(=O)COc2ccc(-c3nc(NC(=O)CC)sc3C)cc21 | 846 |
